The source of these data is patent publication US8741889B2, “Method of treating non-small cell lung cancer and colon cancer with gamma-secretase inhibitor” (Hoffmann-La Roche Inc, priority 2008, dated 2014).

The subject of assay [1] is BxPC3 pancreatic xenografts. In words: Antitumor efficacy in BxPC3 pancreatic xenografts in SCID-beige mice. The assay is classed as in vivo. As for the experimental part:
Female (athymic nu/nu) nude mice were obtained from Charles River Laboratories (Wilmington, Mass.), while female SCID-beige mice were purchased from Taconic (Germantown, N.Y.). Mice were used when they were approximately 8-12 weeks old (nudes) or 8-10 weeks old (SCID-beige), and weighed approximately 23-25 grams. The health of all animals was determined daily by gross observation of experimental animals and by the analyses of blood samples of sentinel animals that were housed on the shared shelf racks. All animals were allowed to acclimate and recover from any shipping related stress for a minimum of 72 hours prior to experimental use. Autoclaved water and irradiated food [5058-ms Pico chow (mouse) Purina, Richmond, Ind.] were provided ad libitum, and the animals were maintained on a 12 hour light and dark cycle. Cages, bedding and water bottles were autoclaved before use and were changed weekly. MiaPaca2, AsPC1 and BxPC3 human pancreatic carcinoma cells were purchased from ATCC (Manassas, Va.). BxPC3 and AsPC1 cells were grown in RPMI medium and MiaPaca2 cells were grown in Dulbecco's Modified Essential Medium (DMEM). All culture media were supplemented with 10% (v/v) FBS and 1% (v/v) […]. […] SCID-biege mice were implanted se with 5×10^6 BxPC3 cells in a 1:1 mixture of matrigel:PBS in a volume of 0.2 ml per mouse in the right hind flank on May 22, 2007. […] Formulated compound and vehicle were stored at 4° C. and prepared weekly. The suspension was mixed vigorously prior to administration. Gemcitabine (Gemzar®, Eli Lilly and Company, Indianapolis, Ind., USA) was reconstituted with sterile saline to yield a stock solution of 38 mg/ml for the entire 3-4 week study. […] Nude mice implanted with MiaPaca2 or AsPC1 xenografts were randomized on day 17 and day 9 post cell implant, respectively. SCID-beige mice bearing BxPC3 xenografts were randomized 8 days post implant. […] Treatment for the MiaPaca2 study began on Feb. […] For the MiaPaca2 and AsPC1 studies, qd Compound (1) suspension or q3d gemcitabine treatment ended on day 37 post tumor cell implant, whereas for the BxPC3 study, qd Compound (1) suspension or q3d gemcitabine treatment ended on day 35 post tumor cell implant. Efficacy data was graphically represented as the mean tumor volume+standard error of the mean (SEM). Tumor volumes of treated groups were presented as percentages of tumor volumes of the control groups (% T/C), using the formula: 100×((T−T0)/(C−C0)), where T represented mean tumor volume of a treated group on a specific day during the experiment, T0 represented mean tumor volume of the same treated group on the first day of treatment; C represented mean tumor volume of a control group on the specific day during the experiment, and C0 represented mean tumor volume of the same treated group on the first day of treatment. Tumor volume (in cubic millimeters) was calculated using the ellipsoid formula: (D×(d2))/2 where ‘D’ represents the large diameter of the tumor, and ‘d’ represents the small diameter. In some cases, tumor regression and/or percent change in tumor volume was calculated using the formula: ((T−T0)/T0)×100 where ‘T’ represents mean tumor volume of the treated group at a particular day, and ‘T0’ represents mean tumor volume of the same treated group at initiation of treatment. Statistical analysis was determined by the rank sum test and One Way Anova and a post-hoc Bonferroni t-test (SigmaStat, version 2.0, Jandel Scientific, San Francisco, Calif.). Differences between groups were considered to be significant when the probability value (p) was ≦0.05.

Assay [2] concerns truncated human Notch 1 processing. In words: Cellular Notch luciferase reporter assay in HEK293 cells. The assay is classed as cell-based. As for the experimental part:
Multiple in vitro assays were utilized to characterize the potency and selectivity of compound (1). The primary in vitro assay uses cell-free membrane preparations to provide the -secretase enzyme complex as an in vitro assay. […] The cellular processing of APP is measured using an ELISA-based readout. HEK293 cells have been engineered to over-express APP. Processing is measured by an ELISA-based quantitation of the A 1-40 secretase product. Cellular Notch inhibitory activity is measured using HEK293 cell line stably expressing a truncated human Notch 1 fused in its intracellular domain to a VP16/[…] transcriptional activator, which drives a firefly luciferase gene Inhibition of Notch processing produces a reduction in luciferase reporter activity as measured by its chemo luminescence.

In general, IC50 refers to the point on the concentration scale where inhibition reaches its midpoint. A high value points to a need for much substance.

Consider `CC(C)(C(=O)NCC(F)(F)C(F)(F)F)C(=O)N[C@@H]1C(=O)Nc2ccccc2-c2ccccc21` [Compound (1), 2,2-Dimethyl-N—((S)-6-oxo-6,7-dihydro-5H-dibenzo[b,d]azepin-7-yl)-N′-(2,2,3,3,3-pentafluoro-propyl)-malonamide], for which the “% TGI” value in assay [1] (3 mg/kg po qd, day 35) worked out at 72%; in assay [1] (10 mg/kg po qd, day 35), 82%; in assay [1] (10 mg/kg po, 3+/4− schedule), 56%; in assay [1] (20 mg/kg po, 7+/7− schedule), 63%; in assay [1] (23 mg/kg po, 3+/4− schedule), 64%; in assay [1] (30 mg/kg po, 3+/4− schedule), 50%. In assay [2], this compound registered an IC50 of 5 nM.
